Data reported in ChEMBL document CHEMBL4699602, “Stapled and Xenopus Glucagon-Like Peptide 1 (GLP-1)-Based Dual GLP-1/Gastrin Receptor Agonists with Improved Metabolic Benefits in Rodent Models of Obesity and Diabetes” (J Med Chem, 2020).
Where a SMILES comes first, the peptide text is derived from it.

These compounds were tested against Glucagon-like peptide 1 receptor (Homo sapiens, UniProt P43220) (assay: Agonist activity at human GLP-1R expressed in HEK293 cells assessed as stimulation of cAMP accumulation incubated for 20 mins).
Sequence of Glucagon-like peptide 1 receptor (P43220 whole entry): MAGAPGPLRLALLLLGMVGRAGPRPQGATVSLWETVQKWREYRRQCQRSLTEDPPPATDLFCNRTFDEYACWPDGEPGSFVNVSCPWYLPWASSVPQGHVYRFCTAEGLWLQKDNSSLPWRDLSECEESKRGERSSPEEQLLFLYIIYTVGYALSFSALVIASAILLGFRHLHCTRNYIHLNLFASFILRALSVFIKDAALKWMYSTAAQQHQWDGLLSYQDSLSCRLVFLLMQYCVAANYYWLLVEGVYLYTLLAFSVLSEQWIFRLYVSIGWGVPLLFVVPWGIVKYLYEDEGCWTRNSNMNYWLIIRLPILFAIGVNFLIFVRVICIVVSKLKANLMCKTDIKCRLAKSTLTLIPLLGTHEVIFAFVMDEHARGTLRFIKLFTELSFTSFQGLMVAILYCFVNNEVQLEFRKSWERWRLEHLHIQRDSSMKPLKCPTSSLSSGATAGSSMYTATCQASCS
Format: functional, cell-based
In the case of `CC[C@H](C)[C@H](NC(=O)[C@H](CC(C)C)NC(=O)[C@H](Cc1c[nH]c2ccccc12)NC(=O)[C@H](CCC(=O)O)NC(=O)[C@H](CS)NC(=O)[C@H](Cc1ccccc1)NC(=O)[C@H](CCC(=O)O)NC(=O)[C@H](CCCCN)NC(=O)[C@H](C)NC(=O)[C@H](C)NC(=O)[C@H](CCC(=O)O)NC(=O)[C@H](CS)NC(=O)[C@H](CCC(=O)O)NC(=O)[C@H](CC(C)C)NC(=O)[C@H](Cc1ccc(O)cc1)NC(=O)[C@H](CCC(=O)O)NC(=O)[C@@H](NC(=O)[C@@H](NC(=O)[C@H](CC(=O)O)NC(=O)[C@H](CC(N)=O)NC(=O)[C@@H](NC(=O)[C@H](Cc1ccc(O)cc1)NC(=O)[C@@H](NC(=O)CNC(=O)[C@H](CCC(=O)O)NC(=O)C(C)(C)NC(=O)[C@@H](N)Cc1c[nH]cn1)[C@@H](C)O)[C@@H](C)O)C(C)C)[C@@H](C)O)C(=O)N[C@@H](CCCCN)C(=O)NCC(=O)N[C@@H](CCCCN)C(=O)N1CCC[C@H]1C(=O)N[C@@H](CO)C(=O)N[C@@H](CO)C(=O)NCC(=O)N[C@@H](C)C(=O)N1CCC[C@H]1C(=O)N1CCC[C@H]1C(=O)N1CCC[C@H]1C(=O)N[C@@H](CO)C(N)=O` (HELM PEPTIDE1{H.[Aib].E.G.T.Y.T.N.D.V.T.E.Y.L.E.C.E.A.A.K.E.F.C.E.W.L.I.K.G.K.P.S.S.G.A.P.P.P.S.[am]}$$$$V2.0), the EC50 is reported as 0.28 nM. Work on `CC[C@H](C)[C@H](NC(=O)[C@H](CC(C)C)NC(=O)[C@H](Cc1c[nH]c2ccccc12)NC(=O)[C@H](CCC(=O)O)NC(=O)[C@H](CS)NC(=O)[C@H](Cc1ccccc1)NC(=O)[C@H](CCC(=O)O)NC(=O)[C@H](CCCCN)NC(=O)[C@H](C)NC(=O)[C@H](C)NC(=O)[C@H](CCC(=O)O)NC(=O)[C@H](CS)NC(=O)[C@H](CCC(=O)O)NC(=O)[C@H](CC(C)C)NC(=O)[C@H](Cc1ccc(O)cc1)NC(=O)[C@H](CCC(=O)O)NC(=O)[C@@H](NC(=O)[C@@H](NC(=O)[C@H](CC(=O)O)NC(=O)[C@H](CC(N)=O)NC(=O)[C@@H](NC(=O)[C@H](Cc1ccc(O)cc1)NC(=O)[C@@H](NC(=O)CNC(=O)[C@H](CCC(=O)O)NC(=O)C(C)(C)NC(=O)[C@@H](N)Cc1c[nH]cn1)[C@@H](C)O)[C@@H](C)O)C(C)C)[C@@H](C)O)C(=O)N[C@@H](CCCCN)C(=O)NCC(=O)N[C@@H](CCCCN)C(N)=O` (HELM PEPTIDE1{H.[Aib].E.G.T.Y.T.N.D.V.T.E.Y.L.E.C.E.A.A.K.E.F.C.E.W.L.I.K.G.K.[am]}$$$$V2.0) yielded an EC50 of 0.73 nM. `CC[C@H](C)[C@H](NC(=O)[C@H](CC(C)C)NC(=O)[C@H](Cc1c[nH]c2ccccc12)NC(=O)[C@H](CS)NC(=O)[C@@H](NC(=O)[C@H](Cc1ccccc1)NC(=O)[C@H](CCC(=O)O)NC(=O)[C@H](CCCCN)NC(=O)[C@H](C)NC(=O)[C@H](C)NC(=O)[C@H](CS)NC(=O)[C@H](CCC(=O)O)NC(=O)[C@H](CCC(=O)O)NC(=O)[C@H](CC(C)C)NC(=O)[C@H](Cc1ccc(O)cc1)NC(=O)[C@H](CCC(=O)O)NC(=O)[C@@H](NC(=O)[C@@H](NC(=O)[C@H](CC(=O)O)NC(=O)[C@H](CC(N)=O)NC(=O)[C@@H](NC(=O)[C@H](Cc1ccc(O)cc1)NC(=O)[C@@H](NC(=O)CNC(=O)[C@H](CCC(=O)O)NC(=O)C(C)(C)NC(=O)[C@@H](N)Cc1c[nH]cn1)[C@@H](C)O)[C@@H](C)O)C(C)C)[C@@H](C)O)[C@@H](C)CC)C(=O)N[C@@H](CCCCN)C(=O)NCC(=O)N[C@@H](CCCCN)C(=O)N1CCC[C@H]1C(=O)N[C@@H](CO)C(=O)N[C@@H](CO)C(=O)NCC(=O)N[C@@H](C)C(=O)N1CCC[C@H]1C(=O)N1CCC[C@H]1C(=O)N1CCC[C@H]1C(=O)N[C@@H](CO)C(N)=O` (HELM PEPTIDE1{H.[Aib].E.G.T.Y.T.N.D.V.T.E.Y.L.E.E.C.A.A.K.E.F.I.C.W.L.I.K.G.K.P.S.S.G.A.P.P.P.S.[am]}$$$$V2.0) gave an EC50 of 0.089 nM.
